From PubChem BioAssay AID179 (DTP/NCI, 2004)
The source made the active and inactive calls.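 How the source made its calls: active means compounds giving half or more protection of infected cells from virus-caused growth loss, again on retest; inactive means the rest.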 Where a SMILES comes first, the peptide text is derived from it. [ ]: non-standard residue; d: D form. Phe(4-Cl) = N[CH](Cc1ccc(Cl)cc1)C(=O)O; 3Pal = N[CH](Cc1cccnc1)C(=O)O

System: CEM cells HIV-1 protection, formazan growth assay
Assay: NCI AIDS Antiviral Assay
Conditions: for IC50: measured here: growth of uninfected CEM cells
In short: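 Category rules: moderately active means at least 50% protection on retest, and confirmed active means 100% protection reproducibly. The underlying data came from a formazan growth assay in HIV-1-infected CEM cells.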

Compound	EC50	IC50	outcome
CC(=O)C1C(=O)C(=O)N(c2cccc([N+](=O)[O-])c2)C1=O (stereo not given)	> 200 µM	> 200 µM	
COc1ccc2nc3ccccc3c(NCCCN(C)CCCl)c2c1	> 200 µM	0.501 µM	
C(=C\N1CCCCC1)/c1nnnn1-c1ccccc1	> 200 µM	24 µM	
CCOC(=O)c1c(C)[nH]c(=S)c(C#N)c1-c1cccc2ccccc12	> 200 µM	28.8 µM	
CCC(=O)OC1=C(c2ccccc2)Sc2ccc(Cl)cc2-n2cccc21	> 200 µM	12 µM	
NC(=Nc1nc(-c2ccccn2)cc2ccccc12)c1ccccn1	> 22.4 µM	0.0851 µM	
O=c1cc(-c2ccccc2)oc2cc(OCCCCCCCCCCOc3ccc4c(=O)cc(-c5ccccc5)oc4c3)ccc12	> 1.7 µM	> 1.7 µM	
COC(=O)CCNC(=O)OCc1ccccc1	> 200 µM	> 200 µM	
O=c1oc2ccccc2c2nc3cc(Cl)c(F)cc3cc12	> 25.1 µM	> 25.1 µM	
CC1=CC(=O)C(=C(C)C)CC1	> 200 µM	129 µM	
Cc1cc(N(CCC#N)CCC#N)ccc1/C=C1N=C(/C=C/c2ccccc2)OC(=O)N\1	> 3.39 µM	> 3.39 µM	
COc1ccc(Sc2ccccc2N)cc1			inactive
Cc1cc(-c2cc(C)c(N)c(S(=O)(=O)O)c2)cc(S(=O)(=O)O)c1N			inactive
O=[n+]1c2c(n([O-])c3ccccc31)-c1cccc3cccc-2c13	> 200 µM	129 µM	
C/C(CCn1[nH]c(=O)ccc1=O)=N\N=C(N)N	> 4.37 µM	> 4.37 µM	
Cn1c2ccccc2c2ccc3c(c21)C(=O)C(c1ccccc1)=CC3=O	> 40.7 µM	29.5 µM	
C[n+]1c2ccccc2c(/C=N\NS(=O)(=O)c2ccc(Cl)cc2)c2ccccc21			inactive
CC(=O)OC[C@H]1O[C@@H](O[C@H]2[C@H](OC(C)=O)C=CO[C@@H]2COC(C)=O)C(OC(C)=O)[C@H]2OC(C)(C)O[C@H]21 (stereo not given in full)	> 200 µM	69.2 µM	
O=C1C(c2ccccc2)=[N+]([O-])c2cc([N+](=O)[O-])c(/C(Cl)=C/c3ccccc3)cc21			inactive
COc1ccc(C(=O)C(c2ccc(OC)cc2)C2(O)C(=O)Nc3ccc([N+](=O)[O-])cc32)cc1 (stereo not given)	> 79.4 µM	> 79.4 µM	
O=S(/C=C/C=C/S(=O)(=O)c1ccccc1)c1ccccc1 (stereo not given)	> 200 µM	0.977 µM	

Compound	EC50	IC50	outcome
CC(=O)NC(Cc1ccc(Cl)cc1)C(=O)NC(Cc1ccc(Cl)cc1)C(=O)NC(Cc1cccnc1)C(=O)NC(CO)C(=O)NC(Cc1ccc(O)cc1)C(=O)NC(CCCN=C(N)N)C(=O)NC(CC(C)C)C(=O)NC(CCCN=C(N)N)C(=O)N1CCCC1C(=O)NC(C)C(=O)O (stereo not given) (Ac-[Phe(4-Cl)][Phe(4-Cl)][3Pal]SYRLRPA-OH; configuration not given here)	> 17 µM	> 17 µM	
CCOC(=O)C1=C(C(=O)OCC)C2(c3ccccc3)N(O1)c1ccccc1C2(C)C (stereo not given)			inactive
NC1=NS(=O)(=O)Nc2nc(-c3ccc([N+](=O)[O-])cc3)[nH]c21	> 200 µM	> 200 µM	
CCCC/C=C(/CCCBr)[Si](C)(C)C	> 339 µM	> 339 µM	
Cc1ccc(/C=C(\NC(=O)c2ccccc2)c2nc3ccccc3[nH]2)cc1	> 74.1 µM	> 74.1 µM	
CCCCCCCCCCCCCCCCCCNc1ccn(C2OC(CO)C(OP(=O)(O)OCC3CCC(n4ccc(N)nc4=O)O3)C2O)c(=O)n1 (stereo not given)	1.1 µM	15.8 µM	
CC(=O)OCC(C)C1=C(OC(C)=O)C(=O)C2(C)C/C=C(/C)CC/C=C(\C)CCC(OC(C)=O)C(C)CCC12 (stereo not given)	> 200 µM	14.5 µM	
O=C1c2ccccc2C(=O)c2c(S)cccc21	148 µM	> 200 µM	
CCC[CH2][Sn]1([CH2]CCC)[O]C(=O)c2cccc(OC)c2[O]1			inactive
CC(C)=CCc1c(O)ccc2c1OC1c3ccc(O)c(CC=C(C)C)c3OCC21 (stereo not given)			inactive
CC(C)[C@@H]1CC[C@]2(COC(=O)CC3(CC(=O)O)CCCC3)CC[C@]3(C)[C@H](CC[C@@H]4[C@@]5(C)CC[C@H](OC(=O)CC6(CC(=O)O)CCCC6)C(C)(C)[C@@H]5CC[C@]43C)[C@@H]12	> 200 µM	6.46 µM	
OCC1OC(NC(=S)NCCC(F)(F)C(F)(F)C(F)(F)C(F)(F)C(F)(F)C(F)(F)F)C(O)C(O)C1O (stereo not given)	> 200 µM	120 µM	
c1ccc(C2N3CCCCC3[C@@H]3c4[nH]c5ccccc5c4CCN23)cc1 (stereo not given in full)	> 20.9 µM	> 20.9 µM	
CC(O)c1nc(C#N)c(N)o1 (stereo not given)	3.31 µM	> 200 µM	
CCN(CC)C1=Nc2ccccc2-n2c(C)cnc2C1	> 200 µM	> 200 µM	
CCCCC(O)(Cc1ccccc1)c1ccc(OCCN(CC)CC)cc1 (stereo not given)	> 200 µM	14.1 µM	
O=c1c2ccccc2sc2nc(CCl)nn12	> 355 µM	57.5 µM	
CCOC(=S)NP(=O)(NC(=S)OCC)NC(=S)OCC	> 200 µM	> 200 µM	
CCCCn1c(=O)c(N=O)c(N)n(CC)c1=O	> 200 µM	174 µM	
CO/N=C(\C(=O)OC(=NC1CCCCC1)NC1CCCCC1)c1csc(NC(c2ccccc2)(c2ccccc2)c2ccccc2)n1	> 200 µM	52.5 µM	
CCOC1C2c3cc4c(cc3CC(C#N)(c3ccccc32)N1C(=O)c1ccccc1)OCO4 (stereo not given)			inactive

Compound	EC50	IC50	outcome
CSc1c(S(C)=O)[nH]c2cc(Br)cc(Br)c12 (stereo not given)			inactive
N#CC(C(=N/NC(N)=S)/C(=N/NC(N)=S)C(C#N)c1ccc(Cl)cc1)c1ccc(Cl)cc1 (stereo not given)	> 257 µM	186 µM	
CCCCCCCCCc1cc(=O)c2ccc(O)cc2o1	> 1.91 µM	> 1.91 µM	
COc1cc2c3c(c1)nnn3C(=O)CCS2	> 200 µM	> 200 µM	
CCCC12C(C(=O)OC)C(=O)C(C(=O)OC)C1(C)C(C(=O)OC)C(=O)C2C(=O)OC (stereo not given)	> 138 µM	97.7 µM	
CSc1ncnc2c1C[P+](Cc1ccccc1)(c1ccccc1)CC2 (stereo not given)	> 562 µM	> 562 µM	
N#Cc1cccc(N2C(=O)c3ccc(C(=O)c4ccc5c(c4)C(=O)N(c4cccc(C#N)c4)C5=O)cc3C2=O)c1	> 7.24 µM	> 7.24 µM	
CC1(C2=CCCCC2)CCC(=O)NC1=O (stereo not given)	> 200 µM	> 200 µM	
CCOc1ccccc1NC(=O)CC1SC(=Nc2ccc([N+](=O)[O-])cc2)NC1=O (stereo not given)	> 229 µM	93.3 µM	
Cc1cccc(C)c1NC(=O)C1C(=O)N(c2c(C)cccc2C)C(=O)/C1=N\N (stereo not given)			inactive
CCOP(=O)(OCC)C(Nc1cccc([N+](=O)[O-])c1)c1ccccc1 (stereo not given)	> 200 µM	174 µM	
O=C1C2c3[nH]c4ccccc4c3C3CCCCCCC3C2C(=O)N1c1ccccc1 (stereo not given)			inactive
COc1ccc([C@H]2c3cc4c(cc3OC(O)(CO)[C@H]2C(=O)O)OCO4)c(OC)c1 (stereo not given in full) (tested in a mixture with another compound)			inactive
C1CCSCCCCCSCCCCCSCCCCCSCC1	> 200 µM	44.7 µM	
OCCSCC/C(=N\N=C(/CCSCCO)c1ccccc1)c1ccccc1	> 87.1 µM	34.7 µM	
O=c1c(-c2cccc3ccccc23)c(-c2cccc3ccccc23)c1=O			inactive
Cc1cc(S(=O)(=O)Nc2nc3cc(-c4ccc(Cl)cc4)sc3c(=O)n2N)c(S)cc1Cl	> 200 µM	110 µM	
Cc1nnc(NS(=O)(=O)c2ccc(N=Nc3cc4ccccc4c(C(=O)O)c3O)cc2)s1	> 200 µM	22.9 µM	
COc1cc2ccnc(-c3n[nH]c4cc(OC)c(OC)cc34)c2cc1OC			inactive
O=[N+]([O-])c1ccc(C2CC(c3ccccc3Cl)=Nc3ccccc3S2=O)cc1 (stereo not given)	> 4.9 µM	> 4.9 µM	
Cc1cc(-c2ccco2)oc(=O)c1NC(=O)c1ccccc1	> 200 µM	25.1 µM	

Compound	EC50	IC50	outcome
O=S(=O)(O)C(F)(F)C(F)(F)C(F)(F)C(F)(F)C(F)(F)C(F)(F)C(F)(F)C(F)(F)F	> 200 µM	> 200 µM	
O=C1Nc2cc(Cl)ccc2N=CC1NC(=O)C(c1ccccc1)c1ccccc1Cl (stereo not given)	> 295 µM	219 µM	
CC(C(O)c1ccccc1)C(O)(C(F)(F)F)C(F)(F)F (stereo not given)	> 200 µM	95.5 µM	
CC(C)CC(N)C(=O)NC(CC(=O)O)C(=O)NC(CCCCN)C(=O)NC(C)C(=O)NC(CO)C(=O)NC(Cc1ccc(O)cc1)C(=O)NC(CO)C(=O)NC(C(=O)NC(CC(N)=O)C(=O)O)C(C)O (stereo not given) (H-LDKASYSTN-OH; configuration not given here)	> 50.1 µM	> 50.1 µM	
c1cc(CCSSCCc2ccncc2)ccn1	> 200 µM	3.8 µM	
O=C1NC(O)c2cc3ccccc3cc2O1 (stereo not given)	> 200 µM	112 µM	
CN(C)CCNc1nc(-c2cccs2)cc(-c2cccs2)n1	> 759 µM	6.46 µM	
CCOC(=O)C(NC(=O)c1ccccc1)(Nc1ccc(S(=O)(=O)Nc2ccc(OC)nn2)cc1)C(F)(F)F (stereo not given)	> 200 µM	> 200 µM	
CCc1n[nH]c(=O)n1-c1ccncc1	> 200 µM	> 200 µM	
CCOP(=O)(OCC)OC(C#N)c1ccc(-c2ccccc2)cc1 (stereo not given)	> 89.1 µM	45.7 µM	
O=[N+]([O-])c1cc([As](=O)(O)O)ccc1O	> 200 µM	> 200 µM	
CC(=O)C(=Cc1ccc(C#N)cc1)C(C)=O	> 170 µM	26.9 µM	
CCCCC1Sc2cc(OC)cc([N+](=O)[O-])c2NC1=O (stereo not given)	> 200 µM	61.7 µM	
CCOC(=O)C1=NN(c2ccccc2)C(=O)/C1=C\N1CC(=O)NC1=S	> 200 µM	> 100 µM	
O=C(/C=C/c1ccc(O)c(O)c1)OC1CC(O)(C(=O)O)CC(O)C1O (stereo not given)	> 200 µM	91.2 µM	
Nc1nc(Cl)cc(OCC2(O)CC(COC(=O)c3ccccc3)C2)n1 (stereo not given)	> 200 µM	60.3 µM	
Cc1ccc(S(=O)(=O)N2CCCC2C(=O)O[C@H]2CC[C@H]3CC=C[C@H]32)cc1 (stereo not given in full)	> 200 µM	20.9 µM	
NC(N)=NS(=O)(=O)c1ccc(NC(=O)c2ccc3nc4ccccc4c(Nc4ccc(S(N)(=O)=O)cc4)c3c2)cc1	> 200 µM	148 µM	
CCOC(=O)CCC(NC(=O)c1ccc(OCc2ccc3nc(-c4ccccc4)c(Cl)nc3c2)cc1)C(=O)OCC (stereo not given)	> 200 µM	43.7 µM	
